The nature of series [1]: Intracolonic delivery of heparin in rats; heparin activity by activated partial thromboplastin time (APTT). Type of series: in vivo, Sprague-Dawley rats. The settings on record: IC. How it is done: Intracolonic dosing (IC) compositions containing delivery agent compound and heparin sodium USP in 25% aqueous propylene glycol were prepared by mixing. […] Typically, compound and heparin powders were mixed, 25% aqueous propylene glycol was added, NaOH solution was added, the contents sonicated, then diluted to a volume of 3.0. pH was checked and adjusted if necessary to pH=7-8.
The dosing solutions were administered to fasted rats at a volume dose of 1 ml/kg. Blood samples were collected by cardiac puncture following the administration of ketamine (44 mg/kg). Heparin activity was determined utilizing the activated partial thromboplastin time (APTT) according to the method of Henry, J. B., Clinical Diagnosis and Management by Laboratory Methods; Philadelphia, Pa.; W. B. Saunders (1979).

A short description of series [2]: PTH delivery in rats, oral (PO) and intracolonic (IC); serum PTH by radioimmunoassay. The series is classed as in vivo, Sprague-Dawley rats. The method, then: Oral gavage (PO) or intracolonic (IC) dosing solutions of delivery agent compound and parathyroid hormone residues 1-34 (PTH) (residues 1-38 for the solution with compound 103) were prepared. […] The final dosing solutions were prepared by mixing the compound solution with a PTH stock solution (typically having a concentration of 5 mg PTH/ml) and diluting to the desired volume (usually 3.0 ml).
The rats were administered one of the dosing solutions at 1 ml/kg for PO or 0.5 ml/kg for IC. Blood samples were collected serially from the tail artery for serum determination of PTH concentration. Serum PTH concentrations were quantified by a PTH radioimmunoassay kit (Kit # RIK 6101 from Peninsula Laboratories, Inc., San Carlos, Calif.).

For series [3] the following is noted: rat, in vivo, po, 150 mg/kg.
Description: (§1) Oral dosing (PO) compositions of delivery agent compound and salmon calcitonin (sCT) in water were prepared by mixing. 450 mg of compound was added to 2.0 ml of water. Either the sodium salt of the compound was used or the free acid was converted to the sodium salt by stirring the resultant solution and adding one equivalent of sodium hydroxide (1.0 N) and diluting with water. 90 μg sCT was added to the solution. Water was then added to bring the total volume to 3.0 ml. […] (For compounds 118 and 123, the solutions were diluted to 6.0 ml and the volume dose was doubled.) The total sCT concentration was 30 μg/ml.
(§2) Male Sprague-Dawley rats weighing between 200-25.0 g were fasted for 24 hours and were administered ketamine (44 mg/kg) and chlorpromazine (1.5 mg/kg) 15 minutes prior to dosing. The rats were administered 1 ml/kg of dosing solution (2 ml/kg for compounds 118 and 123). Blood samples were collected serially from the tail artery. Serum sCT was determined by testing with an EIA kit (Kit # EIAS-6003 from Peninsula Laboratories, Inc., San Carlos, Calif.). The standard protocol from the kit was modified for compounds 104 and 105 as follows: incubated with 50 μl peptide antibody for 2 hours with shaking in the dark, washed the plate, added serum and biotinylated peptide and diluted with 4 ml buffer, and shook overnight in the dark.
A short description of series [4]: Oral delivery of rhGH in rats; serum rhGH by immunoassay. The series is classed as in vivo, Sprague-Dawley rats. The method, then:
Oral gavage (PO) dosing solutions of delivery agent compound and rhGH in phosphate buffer were prepared. […] The final dosing solutions were prepared by mixing the compound solution with an rhGH stock solution (typically having a concentration of 15 mg rhGH/ml) and diluting to the desired volume (usually 3.0 ml).
The rats were administered 1 ml/kg of the dosing solution. Blood samples were collected serially from the tail artery for determination of serum rhGH concentrations. Serum rhGH concentrations were quantified by an rhGH immunoassay test kit (Kit # KIF4015 from Genzyme Corporation Inc., Cambridge, Mass.).

Series [5] is described as follows: Oral delivery of salmon calcitonin (sCT) in rats; serum sCT by EIA. To be noted: compound dose 50 mg/kg, sCT dose 25 μg/kg, modified EIA protocol.
Description: as §1, §2
Where [6] appears, read: compound dose 50 mg/kg, heparin dose 25 mg/kg.
The mark [7] stands for this setting: PO, compound dose 100 mg/kg, PTH (1-34) dose 200 μg/kg.
[8] abbreviates: compound dose 200 mg/kg, rhGH dose 3 mg/kg.
Where [9] appears, read: PO, compound dose 300 mg/kg, PTH (1-34) dose 100 μg/kg.
The mark [10] stands for this setting: compound dose 300 mg/kg, rhGH dose 6 mg/kg.

“And” between values parts separate entries of the source, which are not always exact repeats. Equal values may be shown once. Read-outs that look alike come from different tables or passages of the source.

In the case of `O=C(O)CNC(=O)c1ccccc1` [Compound 110], the “Mean Peak APTT” value in series [1] (setting [6]) is 26.5 ± 4.7 s and 23.4 ± 0.7 s.
The same measure, in the same setting: the same measure for `O=C(O)CCCCCCCNC(=O)c1cc(F)cc(F)c1O` [Compound 41]: 41 ± 26 s.
`COc1ccc(C(=O)NCCCC(=O)O)c(O)c1` [Compound 106]: the “Mean Peak APTT” value in series [1] (setting [6]) was 48 ± 16.9 s and 27.7 ± 12.6 s.
Turning to `O=C(O)CCCCCCCCCCCNC(=O)c1ccccc1` [Compound 98], the “Mean Peak APTT” value in series [1] (setting [6]) was 25 ± 5 s.
On to `O=C(O)CCCc1ccc(Nc2cc(=O)oc3ccccc23)cc1` [Compound 72], for which, in series [1] (setting [6]), the “Mean Peak APTT” value was determined as 50 ± 18 s.
As to `Cc1cc(C)c(O)c(C(=O)Nc2ccc(CCCC(=O)O)cc2)c1` [Compound 14], the “Mean Peak APTT” value in series [1] (setting [6]) was determined as 54 ± 21 s.
For the compound `COc1ccc(C(=O)NCCCCCCCCCCCC(=O)O)c(O)c1` [Compound 109], the “Mean Peak APTT” value in series [1] (setting [6]) is 24.2 ± 1.7 s.
`O=C(O)CCCCCNC(=O)c1ccccc1F` [Compound 86]: the “Mean Peak Serum PTH” value in series [2] (setting [7]) amounted to 0 pg/mL. Further, the “Mean Peak APTT” value in series [1] (setting [6]) is 24 ± 1 s and 31 ± 11 s.
For the compound `Cc1ccccc1C(=O)NCCCCCC(=O)O` [Compound 101], in series [1] (setting [6]), the “Mean Peak APTT” value came out at 26 ± 5 s.
Turning to `COc1ccccc1C(=O)NCCCCCCCCCC(=O)O` [Compound 94], the “Mean Peak Serum PTH” value in series [2] (setting [7]) is 17 ± 38 pg/mL. In addition, in series [1] (setting [6]), the “Mean Peak APTT” value was found to be 50 ± 28 s.
Turning to `O=C(O)CCCC(=O)Nc1cc(Cl)ccc1O` [Compound 119], in series [3], the “Serum sCT (pg/ml) ± SD (SE)” value is 95 ± 119 (53) pg/ml.
As for `Cc1ccccc1C(=O)NCC(=O)O` [Compound 111], the “Mean Peak APTT” value in series [1] (setting [6]) was 24.4 ± 3.3 s.
Turning to `CNc1ccccc1C(=O)Nc1ccc(CCCC(=O)O)cc1` [Compound 10], the “Mean Peak Serum [rhGH]” value in series [4] (setting [8]) came out at 43 ± 65 ng/mL. The “Mean Peak Serum PTH” value in series [2] (setting [9]) was determined as 420 ± 335 pg/mL.
With `COc1ccccc1C(=O)NCCCCCCCCCCCC(=O)O` [Compound 96], the “Mean Peak APTT” value in series [1] (setting [6]) is 72 ± 63 s.
Regarding `Nc1ccc(Cl)cc1C(=O)NCCCCCCCC(=O)O` [Compound 40], the “Mean Peak Serum [rhGH]” value in series [4] (setting [10]) was determined as 42 ± 80 ng/mL.
For the compound `Cc1cc(F)cc(C(=O)NCCCCCCCC(=O)O)c1O` [Compound 56], the “Mean Peak APTT” value in series [1] (setting [6]) is 91 ± 75 s.
Take `Nc1ccc(F)cc1C(=O)Nc1ccc(CCCC(=O)O)cc1` [Compound 3]: in series [4] (setting [10]), the “Mean Peak Serum [rhGH]” value was 72 ± 45 ng/mL. In addition, the “Mean Peak Serum PTH” value in series [2] (setting [9]) was determined as 222 ± 155 pg/mL.
For `O=C(O)CCNC(=O)c1ccccc1O` [Compound 103], the “Mean Peak Serum PTH” value in series [2] (IC, compound dose 100 mg/kg, PTH residues 1-38 dose 25 μg/kg) is 38.53 ± 30.9 pg/mL. Further, the “Mean Peak APTT” value in series [1] (setting [6]) worked out at 21.9 ± 2.0 s.
As to `O=C(O)CNC(=O)c1ccccc1F` [Compound 113], the “Mean Peak APTT” value in series [1] (setting [6]) was 20.4 s.
With `O=C(O)CCCCCCCCCCNC(=O)c1ccccc1` [Compound 87], in series [1] (setting [6]), the “Mean Peak APTT” value is 21 ± 1 s and 23 ± 3 s.
With `Cc1ccccc1C(=O)NCCCC(=O)O` [Compound 91], in series [2] (setting [7]), the “Mean Peak Serum PTH” value amounted to 5 ± 12 pg/mL. Also, the “Mean Peak APTT” value in series [1] (setting [6]) came to 24 ± 4 s.
Regarding `Cc1cc(Cl)cc(C(=O)NCCCCCCCC(=O)O)c1O` [Compound 55], the “Mean Peak APTT” value in series [1] (setting [6]) is 125 ± 195 s.
Take `COc1ccc(C(=O)NCC(=O)O)c(O)c1` [Compound 102]: in series [1] (setting [6]), the “Mean Peak APTT” value is 24.8 ± 0.9 s and 24.7 ± 6.5 s.
As to `COc1ccc(C(=O)NCCCCCCCCCC(=O)O)c(O)c1` [Compound 108], in series [1] (setting [6]), the “Mean Peak APTT” value amounted to 72.9 ± 28.9 s.
Regarding `O=C(O)CCCCCNC(=O)c1ccccc1` [Compound 89], the “Mean Peak Serum PTH” value in series [2] (setting [7]) is recorded as 27 ± 61 pg/mL. Moreover, the “Mean Peak APTT” value in series [1] (setting [6]) was 33 ± 7 s.
Regarding `O=C(O)CCCCCCCCCNC(=O)c1ccccc1F` [Compound 85], the “Mean Peak APTT” value in series [1] (setting [6]) was 27 ± 4 s.
Take `O=C(O)CCCNC(=O)c1cc(Cl)ccc1O` [Compound 105]: the “Serum sCT (pg/ml) ± SD (SE)” value in series [5] came out at 583 ± 140 pg/mL.
For the compound `O=C(O)CCCNC(=O)c1ccccc1` [Compound 93], the “Mean Peak Serum PTH” value in series [2] (setting [7]) was 343 ± 155 pg/mL. For the same compound, in series [1] (compound dose 25 mg/kg, heparin dose 50 mg/kg), the “Mean Peak APTT” value was 22 ± 0 s.
For `O=C(O)CCCCCCCCCCCNC(=O)c1ccccc1F` [Compound 97], the “Mean Peak APTT” value in series [1] (setting [6]) amounted to 33 ± 10 s.
Regarding `O=C(O)CCCCCCCC(=O)Nc1cc(Cl)ccc1O` [Compound 122], the “Serum sCT (pg/ml) ± SD (SE)” value in series [3] is 187 ± 79 (36) pg/ml.
`O=C(O)CCCCCCCNC(=O)c1cc(Cl)cc(Br)c1O` [Compound 48]: the “Mean Peak APTT” value in series [1] (setting [6]) is 75 ± 18 s.
Take `O=C(O)CCCCCCCNC(=O)c1c(O)cccc1Cl` [Compound 51]: the “Mean Peak APTT” value in series [1] (setting [6]) came out at 111 ± 49 s.
For `Cc1ccccc1C(=O)NCCCCCCCCCCCC(=O)O` [Compound 95], in series [1] (setting [6]), the “Mean Peak APTT” value was 30 ± 2 s.
As for `O=C(O)CCc1ccc(F)c(NC(=O)c2ccccc2O)c1` [Compound 60], the “Mean Peak APTT” value in series [1] (setting [6]) is 71 ± 43 s.
Consider `O=C(O)CCCCCCCCC(=O)Nc1cc(Cl)ccc1O` [Compound 123], for which, in series [3], the “Serum sCT (pg/ml) ± SD (SE)” value is 0 pg/mL.
Regarding `O=C(O)CCCCCC(=O)Nc1cc(Cl)ccc1O` [Compound 120], the “Mean Peak APTT” value in series [1] (setting [6]) stood at 42 ± 34 s.
As to `O=C(O)CCCCCCCNC(=O)Cc1ccc(O)cc1` [Compound 46], the “Mean Peak APTT” value in series [1] (setting [6]) turned out to be 52 ± 34 s.
Take `COc1ccc(C(=O)Nc2ccc(CCCC(=O)O)cc2)c(O)c1` [Compound 104]: in series [5], the “Serum sCT (pg/ml) ± SD (SE)” value amounted to 287 ± 104 pg/mL. The “Mean Peak Serum PTH” value in series [2] (setting [7]) stood at 286.35 ± 191.58 pg/mL.
In the case of `O=C(O)CCCCCCCCCNC(=O)c1ccccc1` [Compound 100], the “Mean Peak APTT” value in series [1] (setting [6]) is 31 ± 8 s.
Regarding `COc1ccc(C(=O)NCCCCCC(=O)O)c(O)c1` [Compound 107], the “Mean Peak APTT” value in series [1] (setting [6]) was found to be 26.2 ± 6.1 s.
Turning to `COc1ccccc1C(=O)NCC(=O)O` [Compound 112], the “Mean Peak APTT” value in series [1] (setting [6]) is 28.7 ± 11.5 s.
With `O=C(O)CCCCCCCNC(=O)c1cc(F)ccc1O` [Compound 54], in series [4] (setting [8]), the “Mean Peak Serum [rhGH]” value came out at 48 ± 33 ng/mL. Moreover, the “Mean Peak APTT” value in series [1] (setting [6]) is 124 ± 137 s.
Turning to `COc1ccccc1C(=O)NCCCC(=O)O` [Compound 90], the “Mean Peak Serum PTH” value in series [2] (setting [7]) came to 14 ± 21 pg/mL. Moreover, the “Mean Peak APTT” value in series [1] (setting [6]) turned out to be 26 ± 7 s.
For the compound `CNc1ccccc1C(=O)Nc1ccc(CCC(=O)O)cc1` [Compound 7], the “Mean Peak APTT” value in series [1] (setting [6]) is 59 ± 41 s.
As for `O=C(O)CCCCCCCCCCNC(=O)c1ccccc1F` [Compound 88], in series [1] (setting [6]), the “Mean Peak APTT” value amounted to 59 ± 47 s.
In the case of `O=C(O)CCCNC(=O)c1ccccc1F` [Compound 92], in series [2] (setting [7]), the “Mean Peak Serum PTH” value is reported as 303 ± 427 pg/mL. In addition, the “Mean Peak APTT” value in series [1] (setting [6]) stood at 22 ± 2 s.
On to `O=C(O)CCCCCCCNC(=O)c1cc(Cl)cc(F)c1O` [Compound 45], for which the “Mean Peak Serum [rhGH]” value in series [4] (setting [8]) stood at 49 ± 56 ng/mL.
Consider `Cc1ccccc1C(=O)NCCCCCCCCCC(=O)O` [Compound 99], for which, in series [1] (setting [6]), the “Mean Peak APTT” value amounted to 34 ± 7 s.
